The species entered for experiment [1] is Oryctolagus cuniculus. Kind of experiment: (§1) In vitro inhibitory activity against Adenosine diphosphate (ADP) induced rabbit platelet aggregation. Type of experiment: functional.
Experiment [2] concerns Mus musculus. Put plainly: In vivo anti-thrombotic activity was evaluated by the inhibition of pulmonary thromboembolism model in mice at a dose of 30 mg/kg (p.o.). Type of experiment: functional. The conditions noted are these: route oral.
The species entered for experiment [3] is Oryctolagus cuniculus. Kind of experiment: In vitro inhibitory activity against collagen induced rabbit platelet aggregation. The format is functional.
In experiment [4] the test system is Rattus norvegicus. Put plainly: In vivo anti-hyperplastic activity was evaluated by the inhibition of balloon injury model in rats at a dose of 30 mg/kg (p.o.). Type of experiment: functional. The conditions noted are these: for inhibition in vivo at 30 mg/kg: Rattus norvegicus, po.
A short description of experiment [5]: as §1. Type of experiment: functional, Oryctolagus cuniculus.
The subject of experiment [6] is Mus musculus. Kind of experiment: In vivo anti-thrombotic activity was evaluated by the inhibition of pulmonary thromboembolism model in mice at a dose of 10 mg/kg (p.o.). The format is functional. As to conditions: route oral.
Experiment [7] concerns Rattus norvegicus. Put plainly: In vivo anti-hyperplastic activity was evaluated by the inhibition of balloon injury model in rats at a dose of 10 mg/kg (p.o.). The conditions noted are these: route oral. Type of experiment: functional.

pIC50: −log10 of the molar value. Some results are limits rather than exact numbers.

As to `CN(C(=O)NCCCOc1ccc2nc(O)ccc2c1)C1CCCCC1`, the pIC50 (usually the negative decadic logarithm of the IC50, by convention in mol/L) in the experiment filed under Oryctolagus cuniculus [1] was 5.59; in the experiment filed under Oryctolagus cuniculus [3] (Oryctolagus cuniculus) it was 5.57. Further, the inhibition in vivo (as a rule, the percentage by which the read-out fell short of the control) at 30 mg/kg with Mus musculus [2] came out at 21%; with Rattus norvegicus [4], 15%.
`CCN(CCCOc1ccc2nc(O)ccc2c1)C(=O)N(C)C1CCCCC1`: the pIC50 in experiment [5] (Oryctolagus cuniculus) was 4.82; in the experiment listed under Oryctolagus cuniculus [3] (Oryctolagus cuniculus) it was 4.80. Further, the inhibition in vivo at 30 mg/kg in the experiment with Mus musculus [2] turned out to be 58%; with Rattus norvegicus [4] it was 12%.
In the case of `O=C(NCCCOc1ccc2[nH]c(=O)ccc2c1)N(C1CC1)[C@@H]1CCCC[C@H]1O` (stereo in doubt; 1p) [K-134], the inhibition in vivo at 10 mg/kg with Mus musculus [6] stood at 88%; with Rattus norvegicus [7] it was 26%. Also, the pIC50 was 5.64 in experiment [5] (Oryctolagus cuniculus) and 5.66 in the experiment listed under Oryctolagus cuniculus [3] (Oryctolagus cuniculus). The inhibition in vivo at 30 mg/kg was 100% in the experiment with Mus musculus [2] and 24% in the experiment on Rattus norvegicus [4].
As to `O=C(NCCCOc1ccc2nc(O)ccc2c1)N(C1CC1)[C@@H]1CCC[C@@H](O)C1`, the pIC50 in experiment [5] (Oryctolagus cuniculus) is 5.52; in the experiment filed under Oryctolagus cuniculus [3] (Oryctolagus cuniculus) it was 5.55. The inhibition in vivo at 30 mg/kg in the experiment with Mus musculus [2] was found to be 20%; in the experiment with Rattus norvegicus [4], 0%.
As to `CCCCO[C@H]1CCCC[C@@H]1N(C(=O)NCCCOc1ccc2nc(O)ccc2c1)C1CC1`, the pIC50 in experiment [5] (Oryctolagus cuniculus) is 6.15; in the experiment filed under Oryctolagus cuniculus [3] (Oryctolagus cuniculus), 5.46. The inhibition in vivo at 30 mg/kg came out at 33% in the experiment on Mus musculus [2] and 19% in the experiment on Rattus norvegicus [4].
Take `O=C(NCCCOc1ccc2[nH]c(=O)ccc2c1)N(C1CC1)[C@@H]1CCCC[C@H]1O` (stereo in doubt; 1d) [K-134]: the pIC50 in experiment [5] is 5.60; in the experiment filed under Oryctolagus cuniculus [3] it was 5.51. Further, the Inhibition (usually the share of the control response that was lost under treatment) with Rattus norvegicus [4] (route oral, 30 mg/kg) worked out at 29%.
As to `CC(=O)Oc1ccccc1C(=O)O` [ASPIRIN], the pIC50 (in experiment [5] (Oryctolagus cuniculus); in the experiment filed under Oryctolagus cuniculus [3] (Oryctolagus cuniculus)) was less than 3.00 each time. For the same molecule, the inhibition in vivo at 30 mg/kg in the experiment on Mus musculus [2] was 33%; in the experiment on Rattus norvegicus [4] it was 16%.
For `CN(C(=O)CCCOc1ccc2[nH]c(=O)ccc2c1)C1CCCCC1` [CILOSTAMIDE], the pIC50 in experiment [5] (Oryctolagus cuniculus) was 5.62; in the experiment filed under Oryctolagus cuniculus [3] (Oryctolagus cuniculus), 5.66. Besides, the inhibition in vivo at 30 mg/kg with Mus musculus [2] worked out at 84%; in the experiment with Rattus norvegicus [4], 42%.
For `O=C(NCCCOc1ccc2nc(O)ccc2c1)N(C1CC1)[C@H]1CC[C@H](O)CC1` the same measures were 5.42, 5.51, 0% and 7%.
Take `CN(C(=O)NCCCOc1ccc2nc(O)ccc2c1)[C@@H]1CCCC[C@H]1O`: the pIC50 in experiment [5] (Oryctolagus cuniculus) is 5.41; in the experiment listed under Oryctolagus cuniculus [3] (Oryctolagus cuniculus), 4.82. In addition, the inhibition in vivo at 30 mg/kg worked out at 18% in the experiment with Mus musculus [2] and 10% in the experiment with Rattus norvegicus [4].
On to `O=C(NCCCOc1ccc2nc(O)ccc2c1)N(C1CC1)[C@@H]1CCC[C@H]1O`, for which the pIC50 in experiment [5] (Oryctolagus cuniculus) was 5.60; in the experiment listed under Oryctolagus cuniculus [3] (Oryctolagus cuniculus), 5.46. Besides, the inhibition in vivo at 30 mg/kg was found to be 67% in the experiment on Mus musculus [2] and 23% in the experiment with Rattus norvegicus [4].
Turning to `O=C(NCCCOc1ccc2nc(O)ccc2c1)N(C1CC1)[C@H]1CCCC[C@@H]1O`, the inhibition in vivo at 10 mg/kg with Mus musculus [6] came out at 29%; with Rattus norvegicus [7], 1%. Also, the pIC50 in experiment [5] (Oryctolagus cuniculus) is 5.62; in the experiment listed under Oryctolagus cuniculus [3] (Oryctolagus cuniculus), 5.66. Moreover, the inhibition in vivo at 30 mg/kg in the experiment with Mus musculus [2] amounted to 100%; in the experiment with Rattus norvegicus [4] it was 13%.
`O=C(NCCCOc1ccc2nc(O)ccc2c1)N(C1CC1)[C@@H]1CCCCC[C@H]1O`: the pIC50 is 5.59 in experiment [5] (Oryctolagus cuniculus) and 5.55 in the experiment filed under Oryctolagus cuniculus [3] (Oryctolagus cuniculus). Besides, the inhibition in vivo at 30 mg/kg with Mus musculus [2] came to 44%; with Rattus norvegicus [4], 0%.
As for `O=C1CCc2cc(OCCCCc3nnnn3C3CCCCC3)ccc2N1` [CILOSTAZOL], the pIC50 in experiment [5] (Oryctolagus cuniculus) is 4.54; in the experiment filed under Oryctolagus cuniculus [3] (Oryctolagus cuniculus), 4.51. Also, the results for the inhibition in vivo at 30 mg/kg in the experiment on Mus musculus [2] and in the experiment with Rattus norvegicus [4] were 82% and 12%, respectively.
Consider `O=C(NCCCOc1ccc2nc(O)ccc2c1)N(C1CCCCC1)C1CC1`, for which the figures for the pIC50 (in experiment [5] (Oryctolagus cuniculus); in the experiment filed under Oryctolagus cuniculus [3] (Oryctolagus cuniculus)) were 5.66 and 5.62, respectively. In addition, the inhibition in vivo at 30 mg/kg in the experiment on Mus musculus [2] turned out to be 100%; in the experiment with Rattus norvegicus [4], 15%.
On to `O=C(NCCCOc1ccc2nc(O)ccc2c1)N(C1CCCCCCC1)[C@H]1CCCC[C@@H]1O`, for which the figures for the pIC50 (in experiment [5] (Oryctolagus cuniculus); in the experiment listed under Oryctolagus cuniculus [3] (Oryctolagus cuniculus)) were 7.10 and 7.52, respectively. Further, the figures for the inhibition in vivo at 30 mg/kg in the experiment with Mus musculus [2] and in the experiment with Rattus norvegicus [4] were 100% and 27%, respectively.
As to `O=C(NCCCOc1ccc2nc(O)ccc2c1)N(C1CCCC1)[C@H]1CCCC[C@@H]1O`, the results for the pIC50 (in experiment [5] (Oryctolagus cuniculus); in the experiment listed under Oryctolagus cuniculus [3] (Oryctolagus cuniculus)) were 6.57 and 5.74, respectively. Further, the inhibition in vivo at 30 mg/kg stood at 78% in the experiment on Mus musculus [2] and 20% in the experiment on Rattus norvegicus [4].
For the molecule `O=C(NCCCOc1ccc2nc(O)ccc2c1)N(C1CCCCCC1)[C@H]1CCCC[C@@H]1O`, the pIC50 in experiment [5] (Oryctolagus cuniculus) is 6.92; in the experiment filed under Oryctolagus cuniculus [3] (Oryctolagus cuniculus), 7.52. In addition, the inhibition in vivo at 30 mg/kg is 69% in the experiment with Mus musculus [2] and 11% in the experiment with Rattus norvegicus [4].
Regarding `O=C(NCCCOc1ccc2nc(O)ccc2c1)N(C1CCCCC1)[C@H]1CCCC[C@@H]1O`, the values for the pIC50 (in experiment [5] (Oryctolagus cuniculus); in the experiment filed under Oryctolagus cuniculus [3] (Oryctolagus cuniculus)) were 6.72 and 6.82, respectively. Further, the figures for the inhibition in vivo at 30 mg/kg in the experiment on Mus musculus [2] and in the experiment on Rattus norvegicus [4] were 57% and 18%, respectively.
Take `O=C(NCCCOc1ccc2nc(O)ccc2c1)N(C1CC1)[C@H]1CCCC[C@H]1O`: the pIC50 in experiment [5] (Oryctolagus cuniculus) was 5.64; in the experiment listed under Oryctolagus cuniculus [3] (Oryctolagus cuniculus), 5.48. Further, the inhibition in vivo at 30 mg/kg turned out to be 100% with Mus musculus [2] and 19% in the experiment on Rattus norvegicus [4].
